# Experimental data as given in patent EP4678629A1, “IONIZABLE LIPID MOLECULE, PREPARATION METHOD THEREFOR AND USE THEREOF” (Maxirna (Shanghai) Pharmaceutical Co., Ltd., priority 2023, dated 2024).
# Key:
# [1] = Encapsulation efficiency of the lipid nanoparticle (eGFP mRNA) by Ribogreen method; type: physicochemical; conditions: LNP encapsulating eGFP mRNA, ionizable lipid/DOPE/cholesterol/DMG-PEG2000 50/10/48.25/1.25 mol%, N/P 12
# Procedure: (§1) The ionizable lipid compound and positive control 1 from Example I were dissolved in ethanol at a molar ratio of 50:10:48.25:1.25 with DOPE, cholesterol, and DMG-PEG2000 (all purchased from A.V.T (Shanghai) Pharmaceutical Co., Ltd.) to prepare an ethanol lipid solution. The enhanced green fluorescent protein (eGFP) mRNA was diluted in 20 mM citrate buffer (pH=6.1) to obtain an mRNA aqueous solution. By using a microfluidic device (Micro&Nano Biologics Co., Ltd., model: INano ™ L) mix ethanol lipid solution and mRNA aqueous solution in a volume ratio of 1:3 to prepare a lipid nanoparticle with a total lipid to mRNA N/P ratio of 12. The medium was replaced by ultrafiltration, ethanol was removed and volumed with DPBS. Finally, the lipid nanoparticle was filtered through a 0.2 µm sterile filter to obtain an LNP preparation encapsulating eGFP mRNA using ionizable lipid/DOPE/cholesterol/DMG-PEG2000 (50/10/48.25/1.25 mol%), with an mRNA content of 0.002 mg/ml-0.5 mg/mL.
# (§2) Using Malvern Zetasizer Nano ZS (Malvern UK), the size and polydispersity index (PDI) of the lipid nanoparticle were determined by dynamic light scattering in 173° backscatter detection mode, and the encapsulation efficiency was measured by Ribogreen method.
# [2] = Size and polydispersity index (PDI) of the lipid nanoparticle by dynamic light scattering; type: physicochemical; conditions: LNP encapsulating eGFP mRNA, ionizable lipid/DOPE/cholesterol/DMG-PEG2000 50/10/48.25/1.25 mol%, N/P 12; for Particle size: in nm (unit assumed)
# Procedure: as §1, §2
# [3] = tested on: DC2.4 cells; assay: In vitro transfection of cells with eGFP-mRNA lipid nanoparticle (LNP preparation), fluorescence imaging and flow cytometry; type: cell-based, mouse; conditions: eGFP positivity rate, DC2.4 cells, 200 ng of mRNA per well, after 24 hours
# From the text: (§3) This example used mouse bone marrow-derived dendritic cells DC2.4 (purchased from Millipore) as the validation cell line for a lipid nanoparticle transfection experiment. DC2.4 cells adhered to the wall for growth. All operational steps of cell culture strictly followed the prescribed procedures, using sterile reagents for aseptic operations under a sterile workbench. The main operational steps involved were as follows: • 1) Cell recovery: the preserved cell cryopreservation solution was removed from the -80 °C freezer and immediately placed in a 37 °C water bath for rapid and continuous shaking, allowing it to completely melt within one minute. Fresh culture medium was added to a 15 mL centrifuge tube in advance, and the cell fluid was added to the centrifuge tube in a biosafety cabinet. A centrifuge tube of the same mass was taken, placed symmetrically in the centrifuge, and centrifuged at low speed for 5 minutes at 1200 rpm. After centrifugation, the upper clear liquid was removed, and an appropriate amount of culture medium was slowly added along the tube wall. After the cells were gently blown and dispersed evenly, the cell suspension was drawn and added to the prepared culture bottle. The state and distribution of cells in the early stage of recovery were observed under a microscope. The culture bottle was incubated in a 5% CO2 incubator at 37 °C, and the recovery time was recorded. • 2) Cell passaging: Under a microscope, if the cell density in the field of view reached 80%-90%, cells could be passaged and cultured. Adherent cells required trypsin digestion. In order to avoid residual serum in the culture medium reducing trypsin activity, the original culture medium was removed, and DPBS solution was added to wash once. After suctioning out the DPBS solution, trypsin was added to degrade the protein at the intercellular junction, thereby separating the cells and facilitating further cultivation. The mixture was gently shaken well and placed into the incubator for digestion for 2-3 minutes. After digestion was complete, an appropriate amount of culture medium was immediately added to the original culture dish to terminate digestion. Finally, a pipette was used to carefully blow off the cells and blow them until they were evenly dispersed, and then the cells were inoculated and subcultured in a certain proportion according to experimental requirements.
# (§4) Transfection of DC2.4 cells • 1) DC2.4 cell recovery: the frozen DC2.4 cells were taken out from the -80 °C refrigerator and immediately put into a 37 °C water bath for rapid thawing. After melting, they were added to the preheated culture medium, and centrifuged at 1200 rpm for 5 minutes. The supernatant was discarded, and an appropriate amount of DMEM medium containing 10% FBS was added to resuspend the recovered DC2.4 cells, which were placed in a 37 °C, 5% CO2 incubator for activation culture. • 2) According to experimental requirements, DC2.4 cells were transfected into 24 well plates one day in advance. By counting cells, the number and viability of cells were recorded, and a cell suspension with 2 × 10^5 cells per well were taken. Then, a certain volume of DMEM medium containing 10% FBS was added and mixed evenly, wherein 1 mL was added per well for subsequent transfection experiments. • 3) After 24 hours, the culture medium was gently aspirated with a pipette 30 minutes in advance, and each well was washed with 1 mL of DPBS and aspirated. […] The mixture was placed in a 37 °C, 5% CO2 incubator for activation cultivation. • 6) After 24 hours, cell viability (%), eGFP positivity rate (%), and mean fluorescence intensity data were obtained through cell fluorescence imaging and flow cytometry.
# [4] = as above; type: cell-based, mouse; conditions: mouse, dc2.4 cells, 200 ng of mRNA per well, after 24 hours; read-out: Cell viability, %
# From the text: as §3, §4
"Encapsulation rate, % [1]",PDI [2],Particle size [2],Compound,"Positive rate, % [3]",viability at 24 h [4]
97.73%,0.15,–,"CCCCC/C=C\C/C=C\CCCCCCCCOC(=O)CCCCCCCN(CCO)CCCN(CCCCCCCC(=O)OCCCCCCCC/C=C\C/C=C\CCCCC)CCCCCCCC(=O)OCCCCCCCC/C=C\C/C=C\CCCCC [Example 24, Di((9Z,12Z)-octadeca-9,12-dien-1-yl)8,8'-((3-((2-hydroxyethyl)(8-(((9Z,12Z)-octadeca-9,12-dien-1-yl)oxo)-8-oxooctyl)amino)propyl)azanediyl)dioctanoate]",92.27%,76%
98.27%,0.17,–,"CCCCCC/C=C\COC(=O)CCCCCN(CCO)CCCN(CCCCCC(=O)OC/C=C\CCCCCC)CCCCCC(=O)OC/C=C\CCCCCC [Example 25, Di((Z)-non-2-en-1-yl)6,6'-((3-((2-hydroxyethyl)(6-(((Z)-non-2-en-1-yl)oxo)-6-oxohexyl)amino)propyl)azanediyl)dihexanoate]",94.29%,76.6%
99.66%,0.09,95.80,"CCCCCCCCCCCCCOC(=O)CCCCCN(CCO)CCCN(CCCCCC(=O)OCCCCCCCCCCCCC)CCCCCC(=O)OCCCCCCCCCCCCC [Example 26, Ditridecyl 6,6'-((3-((2-hydroxyethyl)(6-oxo-6-(tridecyloxy)hexyl)amino)propyl)azanediyl)dihexanoate]",95.84%,98.1%
99.65%,0.12,88.43,"CCCCCCCCCCCOC(=O)CCCCCN(CCCO)CCCN(CCCCCC(=O)OCCCCCCCCCCC)CCCCCC(=O)OCCCCCCCCCCC [Example 27, Diundecyl 6,6'-((3-((3-hydroxypropyl)(6-oxo-6-(undecyloxy)hexyl)amino)propyl)azanediyl)dihexanoate]",97.36%,98.2%
99.47%,0.17,–,"CCCCCCCCCCCOC(=O)CCCCCN(CCCCO)CCCN(CCCCCC(=O)OCCCCCCCCCCC)CCCCCC(=O)OCCCCCCCCCCC [Example 28, Diundecyl 6,6'-((3-((4-hydroxybutyl)(6-oxo-6-(undecyloxy)hexyl)amino)propyl)azanediyl)dihexanoate]",97.51%,92.9%
99.55%,0.16,–,CCCCCCCCCCCCCOC(=O)CCCCCCCN(CCCO)CCCN(CCCCCCCC(=O)OCCCCCCCCCCCCC)CCCCCCCC(=O)OCCCCCCCCCCCCC [Example 29],95.33%,96.7%
99.66%,0.09,–,"CCCCCCCCCCCCCOC(=O)CCCCCN(CCCO)CCCN(CCCCCC(=O)OCCCCCCCCCCCCC)CCCCCC(=O)OCCCCCCCCCCCCC [Example 30, 6,6'-((3-((3-hydroxypropyl)(6-oxo-6-(tridecyloxy)hexyl)amino)propyl)azadiyl)ditridecyl dihexanoate]",96.41%,96.9%
99.36%,0.15,84.05,"CCCCCCCCCCCCCOC(=O)CCCCCN(CCCCO)CCCN(CCCCCC(=O)OCCCCCCCCCCCCC)CCCCCC(=O)OCCCCCCCCCCCCC [Example 31, 6,6'-((3-((4-hydroxybutyl)(6-oxo-6-(tridecyloxy)hexyl)amino)propyl)azadiyl)ditridecyl dihexanoate]",97.43%,94.4%
99.30%,0.13,83.34,CCCCCCCCCCCOC(=O)CCCCCCN(CCO)CCCN(CCCCCCC(=O)OCCCCCCCCCCC)CCCCCCC(=O)OCCCCCCCCCCC [Example 32],95.28%,96.6%
98.96%,0.13,–,CCCCCCCCCCCCCOC(=O)CCCCCCN(CCO)CCCN(CCCCCCC(=O)OCCCCCCCCCCCCC)CCCCCCC(=O)OCCCCCCCCCCCCC [Example 33],95.18%,96.4%
99.39%,0.16,82.74,CCCCCCCCCCCCCOC(=O)CCCCCCN(CCCO)CCCN(CCCCCCC(=O)OCCCCCCCCCCCCC)CCCCCCC(=O)OCCCCCCCCCCCCC [Example 34],93.19%,95%
99.50%,0.12,92.18,CCCCCCCCCCCCCOC(=O)CCCCCCN(CCCCO)CCCN(CCCCCCC(=O)OCCCCCCCCCCCCC)CCCCCCC(=O)OCCCCCCCCCCCCC [Example 35],98.59%,97.2%
99.39%,0.16,89.30,CCCCCCCCCCCOC(=O)CCCCCCN(CCCO)CCCN(CCCCCCC(=O)OCCCCCCCCCCC)CCCCCCC(=O)OCCCCCCCCCCC [Example 36],93.6%,94.2%
99.26%,0.15,77.57,CCCCCCCCCCCOC(=O)CCCCCCN(CCCCO)CCCN(CCCCCCC(=O)OCCCCCCCCCCC)CCCCCCC(=O)OCCCCCCCCCCC [Example 37],89.37%,96.6%
97.58%,0.13,89.31,"CCCCCCCCCCCCCOC(=O)CCCCN(CCO)CCCN(CCCCC(=O)OCCCCCCCCCCCCC)CCCCC(=O)OCCCCCCCCCCCCC [Example 39, Ditridecyl 5,5'-((3-((2-hydroxyethyl)(5-oxo-5-(tridecyloxy)pentyl)amino)propyl)azadiyl)dipentanoate]",91.26%,96.9%
99.29%,0.14,63.23,CCCCCCCCCCCCCOC(=O)CCCCN(CCCO)CCCN(CCCCC(=O)OCCCCCCCCCCCCC)CCCCC(=O)OCCCCCCCCCCCCC [Example 40],99.14%,97.7%
96.67%,0.13,71.17,"CCCCCCCCCCCCCOC(=O)CCCCN(CCCCO)CCCN(CCCCC(=O)OCCCCCCCCCCCCC)CCCCC(=O)OCCCCCCCCCCCCC [Example 41, Ditridecyl 5,5'-((3-((4-hydroxybutyl)(5-oxo-5-(tridecyloxy)pentyl)amino)propyl)azadiyl)dipentanoate]",96.42%,97.2%
